Results: ChEMBL document CHEMBL5500329, “Identification of dihydroquinolizinone derivatives with nitrogen heterocycle moieties as new anti-HBV agents” (Eur J Med Chem, 2024)

Columns and labels:
Hepatitis B virus [1] = assay: Antiviral activity against Hepatitis B virus assessed as inhibition of HbeAg level; assay type: functional, organism-based
[2] = Neurotoxicity in PAPD5-knockout mouse HT-22 cells assessed as reduction in neurite length; assay type: toxicity, cell-based
[3] = Neurotoxicity in mouse HT-22 cells assessed as reduction in neurite length at 10 to 30 uM incubated for 24 to 48 hrs; assay type: toxicity, cell-based; conditions: ht-22, 30 µM, dose lower 10 µM, time lower 24 hrs, dose upper 30 µM, time upper 48 hrs
[4] = MRT (0 to infinity) in mouse at 10 mg/kg, po administered as single dose; assay type: ADME, organism-based; conditions: in vivo
[5] = Cmax in mouse at 10 mg/kg, po administered as single dose; assay type: ADME, organism-based; conditions: in vivo
[6] = Tmax in mouse at 10 mg/kg, po administered as single dose; assay type: ADME, organism-based; conditions: in vivo
HT-22 [7] = assay: Cytotoxicity against mouse HT-22 cells assessed as reduction in cell viability at 10 uM; assay type: toxicity, cell-based; conditions: ht-22, 10 µM
HT-22 [8] = assay: Cytotoxicity against mouse HT-22 cells assessed as reduction in cell viability at 30 uM; assay type: toxicity, cell-based; conditions: ht-22, 30 µM
[9] = AUC (0 to infinity) in mouse at 10 mg/kg, po administered as single dose; assay type: ADME, organism-based; conditions: in vivo
Hepatitis B virus [10] = assay: Antiviral activity against Hepatitis B virus assessed as inhibition of HBV DNA production; assay type: functional, organism-based
Hepatitis B virus [11] = assay: Antiviral activity against Hepatitis B virus assessed as inhibition of HbsAg level; assay type: functional, organism-based
[12] = Neurotoxicity in PAPD7-knockout mouse HT-22 cells assessed as reduction in neurite length; assay type: toxicity, cell-based
[13] = Half-life in mouse at 10 mg/kg, po administered as single dose; assay type: ADME, organism-based; conditions: in vivo
[14] = Cytotoxicity against mouse HT-22 cells assessed as cell viability at 30 uM relative to control; assay type: toxicity, cell-based; conditions: read-out: Activity
[15] = Neurotoxicity in mouse HT-22 cells assessed as reduction in neurite length at 10 uM; assay type: toxicity, cell-based; conditions: ht-22, 10 µM
[16] = Neurotoxicity in mouse HT-22 cells assessed as reduction in neurite length at 30 uM incubated for 48 hrs; assay type: toxicity, cell-based; conditions: ht-22, 48 h
[17] = Neurotoxicity in mouse DRG neuron assessed as reduction in neurite length at 10 uM incubated for 24 hrs; assay type: toxicity, cell-based

| SMILES | IC50 (Hepatitis B virus [1]) | IC50 (Hepatitis B virus [10]) | IC50 (Hepatitis B virus [11]) | other results |
| --- | --- | --- | --- | --- |
| COc1cc2c(cc1OCCCN1CCC3(C1)OCCO3)CC(C(C)C)n1cc(C(=O)O)c(=O)cc1-2 (stereo not drawn) | 319 nM | 47.3 nM | 33 nM |  |
| COc1cc2c(cc1OCCCN1CCC3(C1)OCCO3)C[C@@H](C(C)C)n1cc(C(=O)O)c(=O)cc1-2 | 195 nM |  | 23 nM | viability at 30 µM [14]: 74.9%; Activity (HT-22 [7]): Non-Toxic |
| COc1cc2c(cc1N1CCC3(CCOC3)C1)CC(C(C)C)n1cc(C(=O)O)c(=O)cc1-2 (stereo not drawn) | 62 nM | 332 nM | 5 nM |  |
| COc1cc2c(cc1N1CCC3(CCN(C(=O)OC(C)(C)C)CC3)C1)CC(C(C)C)n1cc(C(=O)O)c(=O)cc1-2 (stereo not drawn) | 111 nM | 50 nM | 16 nM |  |
| COc1cc2c(cc1N1CCC3(CC1)OCCO3)CC(C(C)C)n1cc(C(=O)O)c(=O)cc1-2 (stereo not drawn) | 87 nM | 0.5 nM | 12 nM |  |
| COc1cc2c(cc1N1CCC3(C1)OCCO3)C[C@H](C(C)C)n1cc(C(=O)O)c(=O)cc1-2 | 668 nM |  | 126 nM |  |
| COc1cc2c(cc1N1CCC3(CCOCC3)C1)C[C@@H](C(C)C)n1cc(C(=O)O)c(=O)cc1-2 | 71 nM |  | 5 nM | Activity (HT-22 [7]): Non-Toxic; Activity (HT-22 [8]): Non-Toxic |
| COc1cc2c(cc1N1CCOCC1)C[C@H](C(C)C)n1cc(C(=O)O)c(=O)cc1-2 | > 1000 nM |  | 599 nM |  |
| COc1cc2c(cc1N1CCC3(CCCO3)CC1)CC(C(C)C)n1cc(C(=O)O)c(=O)cc1-2 (stereo not drawn) | 295 nM | 40 nM | 27 nM |  |
| COc1cc2c(cc1OC1CCC3(CCOCC3)CC1)CC(C(C)C)n1cc(C(=O)O)c(=O)cc1-2 (stereo not drawn) | 47 nM | 38 nM | 151 nM |  |
| COc1cc2c(cc1N1CC3COCC3C1)CC(C(C)C)n1cc(C(=O)O)c(=O)cc1-2 (stereo not drawn) | 236 nM | 64 nM | 14 nM |  |

Continued, in another order:

| IC50 (Hepatitis B virus [1]) | IC50 (Hepatitis B virus [10]) | IC50 (Hepatitis B virus [11]) | SMILES | other results |
| --- | --- | --- | --- | --- |
| 91 nM | 86 nM | 5 nM | COCCCOc1cc2c(cc1OC)-c1cc(=O)c(C(=O)O)cn1[C@H](C(C)C)C2 | Activity [2]: Toxic; Activity [3]: Toxic; MRT inf [4]: 1.66 h; Cmax [5]: 6630 ng/mL; Tmax [6]: 0.42 h; Activity (HT-22 [7]): Non-Toxic; Activity (HT-22 [8]): Non-Toxic; AUC(0-inf) [9]: 10800 ng·h/mL; Activity [12]: Toxic; half-life [13]: 2.39 h |
| 0.6 nM | 0.6 nM | 0.6 nM | COc1cc2c(cc1OC[C@@H]1CCCO1)C[C@@H](C(C)C)n1cc(C(=O)O)c(=O)cc1-2 |  |
| 38 nM | 7.6 nM | 1.8 nM | COc1cc2c(cc1N1CCC3(C1)OCCO3)CC(C(C)C)n1cc(C(=O)O)c(=O)cc1-2 (stereo not drawn) |  |
| 5 nM | < 1.6 nM | 0.6 nM | COc1cc2c(cc1N1CCC3(CCOCC3)C1)CC(C(C)C)n1cc(C(=O)O)c(=O)cc1-2 (stereo not drawn) |  |
| 875 nM |  | 100 nM | COc1cc2c(cc1N1CCC3(CCOCC3)C1)C[C@H](C(C)C)n1cc(C(=O)O)c(=O)cc1-2 |  |
| > 1000 nM | 217 nM | 62 nM | COc1cc2c(cc1OCCCN1CCC3(CCCO3)CC1)CC(C(C)C)n1cc(C(=O)O)c(=O)cc1-2 (stereo not drawn) |  |
| > 1000 nM | 405 nM | 1240 nM | COc1cc2c(cc1N1CCC(C(=O)O)CC1)CC(C(C)C)n1cc(C(=O)O)c(=O)cc1-2 (stereo not drawn) |  |
| 204 nM | 80 nM | 30 nM | COc1cc2c(cc1N1CCC(C(F)(F)F)CC1)CC(C(C)C)n1cc(C(=O)O)c(=O)cc1-2 (stereo not drawn) |  |
| 99 nM | 8 nM | 8 nM | COc1cc2c(cc1N1CCOCC1)CC(C(C)C)n1cc(C(=O)O)c(=O)cc1-2 (stereo not drawn) |  |
| 84 nM |  | 4 nM | COc1cc2c(cc1N1CCC3(C1)OCCO3)C[C@@H](C(C)C)n1cc(C(=O)O)c(=O)cc1-2 | Activity (HT-22 [7]): Non-Toxic; Activity (HT-22 [8]): Non-Toxic |
| 856 nM |  | 189 nM | COc1cc2c(cc1OCCCN1CCC3(C1)OCCO3)C[C@H](C(C)C)n1cc(C(=O)O)c(=O)cc1-2 |  |
| > 1000 nM | 31 nM | 193 nM | COc1cc2c(cc1OCCCN1CCC3(CCOC3)C1)CC(C(C)C)n1cc(C(=O)O)c(=O)cc1-2 (stereo not drawn) |  |
| > 1000 nM | 300 nM | 41 nM | COc1cc2c(cc1N1CCC(O)CC1)CC(C(C)C)n1cc(C(=O)O)c(=O)cc1-2 (stereo not drawn) |  |
| 287 nM |  | 23 nM | COc1cc2c(cc1N1CCOCC1)C[C@@H](C(C)C)n1cc(C(=O)O)c(=O)cc1-2 | Activity [15]: Non-Toxic; MRT inf [4]: 2.69 h; Cmax [5]: 7620 ng/mL; Tmax [6]: 0.58 h; Activity (HT-22 [7]): Non-Toxic; Activity (HT-22 [8]): Non-Toxic; AUC(0-inf) [9]: 23400 ng·h/mL; Activity [16]: Non-Toxic; Activity [17]: Non-Toxic; half-life [13]: 2.09 h |
